Results as given in the Kinase Knowledgebase extract (Sharma et al. 2016).
pIC50: −log10 of the molar value. Several values for one entry are separate records, joined by “and”; a condition that tells them apart may be missing. Identical values can stand only once.

Columns and labels:
[1] = biological target: EGFR (Human), P00533 [T790M/L858R]
EGFR (human) = EGFR (human) (UniProt P00533)
[2] = biological target: EGFR (human), P00533 [L858R]
[3] = biological target: EGFR (Human), P00533 [Assessment of EGFR-Del T790M Dependent Cell Proliferation in BaF3 Cells]
[4] = biological target: EGFR (Human), P00533 [T790M/L858R]; settings: baf3

Sequence of EGFR (human), P00533 [L858R] (P00533 whole entry L858R, looked up): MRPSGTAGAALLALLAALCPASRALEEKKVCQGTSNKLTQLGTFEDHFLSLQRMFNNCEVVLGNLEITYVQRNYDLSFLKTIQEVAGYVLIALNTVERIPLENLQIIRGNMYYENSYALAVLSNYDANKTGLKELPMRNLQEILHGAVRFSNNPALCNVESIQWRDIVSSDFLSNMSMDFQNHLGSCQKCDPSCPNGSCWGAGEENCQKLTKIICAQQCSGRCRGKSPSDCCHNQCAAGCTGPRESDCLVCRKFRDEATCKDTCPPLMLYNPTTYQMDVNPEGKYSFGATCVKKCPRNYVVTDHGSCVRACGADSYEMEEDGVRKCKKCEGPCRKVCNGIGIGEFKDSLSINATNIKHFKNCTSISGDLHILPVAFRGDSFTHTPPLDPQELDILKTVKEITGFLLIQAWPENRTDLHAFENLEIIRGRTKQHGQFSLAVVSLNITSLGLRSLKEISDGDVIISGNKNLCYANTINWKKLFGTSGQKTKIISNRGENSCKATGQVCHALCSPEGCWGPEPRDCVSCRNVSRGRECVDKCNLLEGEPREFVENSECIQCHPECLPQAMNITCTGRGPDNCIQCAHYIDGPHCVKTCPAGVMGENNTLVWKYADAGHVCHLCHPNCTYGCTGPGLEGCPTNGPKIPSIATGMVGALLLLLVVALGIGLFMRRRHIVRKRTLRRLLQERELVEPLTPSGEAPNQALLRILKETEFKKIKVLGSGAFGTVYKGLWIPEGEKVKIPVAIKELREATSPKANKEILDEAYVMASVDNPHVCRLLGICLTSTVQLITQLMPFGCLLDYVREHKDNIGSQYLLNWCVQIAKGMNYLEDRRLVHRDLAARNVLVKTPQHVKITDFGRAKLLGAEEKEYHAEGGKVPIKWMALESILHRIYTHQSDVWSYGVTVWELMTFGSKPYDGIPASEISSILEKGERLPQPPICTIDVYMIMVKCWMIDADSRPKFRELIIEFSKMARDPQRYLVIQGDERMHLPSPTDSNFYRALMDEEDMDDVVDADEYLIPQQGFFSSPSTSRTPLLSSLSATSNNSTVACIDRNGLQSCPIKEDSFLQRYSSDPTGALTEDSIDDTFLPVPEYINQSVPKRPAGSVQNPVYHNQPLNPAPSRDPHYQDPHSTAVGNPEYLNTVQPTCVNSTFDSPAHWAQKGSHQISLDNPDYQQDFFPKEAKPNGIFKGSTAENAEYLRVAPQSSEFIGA
Sequence of EGFR (human) (P00533 whole entry, looked up): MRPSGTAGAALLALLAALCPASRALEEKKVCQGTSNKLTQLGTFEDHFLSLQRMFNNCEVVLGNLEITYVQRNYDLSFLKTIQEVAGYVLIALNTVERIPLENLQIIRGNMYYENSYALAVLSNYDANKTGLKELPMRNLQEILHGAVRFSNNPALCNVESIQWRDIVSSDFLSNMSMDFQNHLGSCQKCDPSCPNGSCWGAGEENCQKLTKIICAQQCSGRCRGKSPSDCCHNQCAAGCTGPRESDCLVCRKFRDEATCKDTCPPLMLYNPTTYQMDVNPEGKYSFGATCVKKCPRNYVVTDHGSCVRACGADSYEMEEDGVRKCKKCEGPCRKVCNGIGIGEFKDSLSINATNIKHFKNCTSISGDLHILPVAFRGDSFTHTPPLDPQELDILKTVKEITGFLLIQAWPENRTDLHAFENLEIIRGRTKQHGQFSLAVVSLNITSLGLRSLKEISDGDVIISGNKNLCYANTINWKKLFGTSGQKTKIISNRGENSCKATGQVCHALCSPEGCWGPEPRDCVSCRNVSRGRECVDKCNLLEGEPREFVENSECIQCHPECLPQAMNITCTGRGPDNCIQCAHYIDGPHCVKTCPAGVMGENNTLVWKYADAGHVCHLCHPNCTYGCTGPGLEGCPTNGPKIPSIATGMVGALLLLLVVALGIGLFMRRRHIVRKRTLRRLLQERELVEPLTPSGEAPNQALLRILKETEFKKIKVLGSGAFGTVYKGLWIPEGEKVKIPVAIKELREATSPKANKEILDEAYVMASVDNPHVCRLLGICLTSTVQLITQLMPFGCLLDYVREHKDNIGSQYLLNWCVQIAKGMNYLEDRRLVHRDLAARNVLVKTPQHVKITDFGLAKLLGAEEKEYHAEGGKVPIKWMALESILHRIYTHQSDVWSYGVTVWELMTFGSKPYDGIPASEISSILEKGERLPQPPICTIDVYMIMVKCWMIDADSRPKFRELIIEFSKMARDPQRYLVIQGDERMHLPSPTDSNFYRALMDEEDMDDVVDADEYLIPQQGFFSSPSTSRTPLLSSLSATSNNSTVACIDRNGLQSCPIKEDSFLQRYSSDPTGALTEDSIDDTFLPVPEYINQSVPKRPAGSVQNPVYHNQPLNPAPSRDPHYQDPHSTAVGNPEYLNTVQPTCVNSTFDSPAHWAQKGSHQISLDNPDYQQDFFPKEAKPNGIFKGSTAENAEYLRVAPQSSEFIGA
Sequence of EGFR (Human), P00533 [Assessment of EGFR-Del T790M Dependent Cell Proliferation in BaF3 Cells] (P00533 whole entry, looked up, stated change not applied): as the sequence (P00533 whole entry, looked up) above
Sequence of EGFR (Human), P00533 [T790M/L858R] (P00533 whole entry T790M/L858R, looked up): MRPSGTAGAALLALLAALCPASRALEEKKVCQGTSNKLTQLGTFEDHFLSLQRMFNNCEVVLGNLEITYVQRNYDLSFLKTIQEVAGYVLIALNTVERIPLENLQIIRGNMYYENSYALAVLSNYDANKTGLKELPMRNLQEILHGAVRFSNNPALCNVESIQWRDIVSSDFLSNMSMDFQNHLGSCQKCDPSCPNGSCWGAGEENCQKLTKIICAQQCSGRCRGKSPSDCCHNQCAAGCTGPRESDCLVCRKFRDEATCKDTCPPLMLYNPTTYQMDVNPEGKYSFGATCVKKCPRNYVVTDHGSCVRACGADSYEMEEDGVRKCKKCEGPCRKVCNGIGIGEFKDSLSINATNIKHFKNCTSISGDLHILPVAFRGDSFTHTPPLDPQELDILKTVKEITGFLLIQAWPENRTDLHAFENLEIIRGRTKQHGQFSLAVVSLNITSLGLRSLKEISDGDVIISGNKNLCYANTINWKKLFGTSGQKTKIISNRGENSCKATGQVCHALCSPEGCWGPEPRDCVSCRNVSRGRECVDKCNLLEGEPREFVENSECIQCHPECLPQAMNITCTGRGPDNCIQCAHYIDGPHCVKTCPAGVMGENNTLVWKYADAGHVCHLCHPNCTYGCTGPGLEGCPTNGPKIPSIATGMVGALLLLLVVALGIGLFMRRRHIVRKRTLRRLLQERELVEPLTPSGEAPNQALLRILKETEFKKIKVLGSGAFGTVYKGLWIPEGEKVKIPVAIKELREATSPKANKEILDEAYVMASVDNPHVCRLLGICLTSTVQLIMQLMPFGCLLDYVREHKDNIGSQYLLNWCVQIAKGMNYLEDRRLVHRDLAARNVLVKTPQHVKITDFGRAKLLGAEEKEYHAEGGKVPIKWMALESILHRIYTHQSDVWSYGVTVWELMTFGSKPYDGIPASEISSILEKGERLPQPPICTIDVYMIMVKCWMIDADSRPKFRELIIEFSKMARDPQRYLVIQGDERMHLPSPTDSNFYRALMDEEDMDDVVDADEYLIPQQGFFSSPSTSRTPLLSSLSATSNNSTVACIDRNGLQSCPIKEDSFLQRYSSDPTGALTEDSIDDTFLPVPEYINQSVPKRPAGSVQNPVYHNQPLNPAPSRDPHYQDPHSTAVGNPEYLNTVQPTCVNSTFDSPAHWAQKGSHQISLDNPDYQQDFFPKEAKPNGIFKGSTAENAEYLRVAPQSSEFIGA

Row | pIC50 [1] | pIC50 (EGFR (human)) | pIC50 [2] | pIC50 [3] | pIC50 [4] | Structure (SMILES)
1 | > 7.30 | 7.00 to 7.30 | > 7.30 | > 7.30 | > 7.30 | C=C(CN1CCN(C(C)C)CC1)C(=O)Nc1ccc(OC)c(Nc2ncc(Cl)c(Nc3ccccc3P(C)(C)=O)n2)c1
2 | > 7.30 | > 7.30 | > 7.30 | > 7.30 | > 7.30 | COc1ccc(NC(=O)/C=C/CN2CCCCC2)cc1Nc1ncc(Cl)c(Nc2ccccc2P(C)(C)=O)n1
3 | > 7.30 |  | > 7.30 |  |  | COc1ccc(NC(=O)C2=CCCN(C)C2)cc1Nc1ncc(Cl)c(Nc2ccccc2P(C)(C)=O)n1
4 | > 7.30 | > 7.30 | > 7.30 | > 7.30 | > 7.30 | COc1cc(N2CCOCC2)c(NC(=O)C#CCN(C)C)cc1Nc1ncc(Cl)c(Nc2ccccc2P(C)(C)=O)n1
5 | > 7.30 | > 7.30 | > 7.30 | > 7.30 | > 7.30 | C=CC(=O)Nc1cc(Nc2ncc(Cl)c(Nc3ccccc3P(C)(C)=O)n2)c(OC)cc1C#CCN(C)C(C)C
6 | > 7.30 | > 7.30 | > 7.30 | > 7.30 | > 7.30 | COc1ccc(NC(=O)C#CCN(C)C)cc1Nc1ncc(Cl)c(Nc2ccccc2P(C)(C)=O)n1
7 |  |  |  | 6.60 to 7.00 |  | C=CC(=O)N1CCc2cc(Nc3ncc(Cl)c(Nc4ccccc4P(C)(C)=O)n3)c(OC)cc21
8 | > 7.30 | > 7.30 | > 7.30 | 6.60 to 7.00 |  | COc1ccc(NC(=O)/C=C/C(=O)N2CCN(C)CC2)cc1Nc1ncc(Cl)c(Nc2ccccc2P(C)(C)=O)n1
9 |  |  | 6.60 to 7.00 |  |  | COc1ccc(NC(=O)/C=C\C(=O)N2CCN(C)CC2)cc1Nc1ncc(Cl)c(Nc2ccccc2P(C)(C)=O)n1
10 | > 7.30 |  | 7.00 to 7.30 |  |  | C=C(CN1CCS(=O)(=O)CC1)C(=O)Nc1ccc(OC)c(Nc2ncc(Cl)c(Nc3ccccc3P(C)(C)=O)n2)c1
11 | > 7.30 | > 7.30 | > 7.30 |  |  | COc1ccc(NC(=O)/C=C/C(=O)NCCN(C)C)cc1Nc1ncc(Cl)c(Nc2ccccc2P(C)(C)=O)n1
12 | 6.60 to 7.00 |  | 7.00 to 7.30 |  |  | COc1ccc(NC(=O)/C=C/C(=O)N(C)C)cc1Nc1ncc(Cl)c(Nc2ccccc2P(C)(C)=O)n1
13 | > 7.30 |  | > 7.30 | 6.60 to 7.00 | 6.60 to 7.00 | C=CC(=O)Nc1cc(Nc2ncc(Cl)c(Nc3ccccc3P(C)(C)=O)n2)c(OC)cc1C#CC1(N(C)C)CC1
14 | > 7.30 |  | > 7.30 | > 7.30 | 6.60 to 7.00 | CNC(=O)/C=C\C(=O)Nc1ccc(OC)c(Nc2ncc(Cl)c(Nc3ccccc3P(C)(C)=O)n2)c1
15 | > 7.30 |  | > 7.30 | 7.00 to 7.30 | 6.60 to 7.00 | CNC(=O)/C=C/C(=O)Nc1ccc(OC)c(Nc2ncc(Cl)c(Nc3ccccc3P(C)(C)=O)n2)c1
16 | > 7.30 |  | > 7.30 |  |  | COc1ccc(NC(=O)/C=C\C(=O)NCCN(C)C)cc1Nc1ncc(Cl)c(Nc2ccccc2P(C)(C)=O)n1
17 |  |  |  | > 7.30 | > 7.30 | C=CC(=O)Nc1ccc(F)c(Nc2ncc(Cl)c(Nc3ccccc3P(C)(C)=O)n2)c1
18 | 7.00 to 7.30 |  | > 7.30 | > 7.30 | 7.00 to 7.30 | C=C(F)C(=O)Nc1ccc(OC)c(Nc2ncc(Cl)c(Nc3ccccc3P(C)(C)=O)n2)c1
19 | > 7.30 |  | > 7.30 | 6.60 to 7.00 |  | C=CC(=O)Nc1ccc(OC)c(Nc2ncc(Cl)c(Nc3ccccc3P(C)(C)=O)n2)c1
20 | > 7.30 | > 7.30 | > 7.30 | 6.60 to 7.00 |  | C=C(CN1CCNC(=O)C1)C(=O)Nc1ccc(OC)c(Nc2ncc(Cl)c(Nc3ccccc3P(C)(C)=O)n2)c1
21 | > 7.30 |  | > 7.30 | > 7.30 | > 7.30 | COc1ccc(NC(=O)C#Cc2ccccc2)cc1Nc1ncc(Cl)c(Nc2ccccc2P(C)(C)=O)n1
22 | > 7.30 | 6.60 to 7.00 | > 7.30 |  |  | COc1ccc(NC(=O)/C=C/C2(N)CC2)cc1Nc1ncc(Cl)c(Nc2ccccc2P(C)(C)=O)n1
23 | 7.00 to 7.30 |  | > 7.30 | > 7.30 | 7.00 to 7.30 | CC#CC(=O)Nc1cc(Nc2ncc(Cl)c(Nc3ccccc3P(C)(C)=O)n2)c(OC)cc1OC1COC1
24 | > 7.30 |  | > 7.30 | 7.00 to 7.30 |  | COc1ccc(NC(=O)/C=C/CN2CCCC2)cc1Nc1ncc(Cl)c(Nc2ccccc2P(C)(C)=O)n1
25 | > 7.30 | > 7.30 | > 7.30 |  |  | C=C(C(=O)Nc1ccc(OC)c(Nc2ncc(Cl)c(Nc3ccccc3P(C)(C)=O)n2)c1)C(F)(F)F
26 | 6.60 to 7.00 |  |  |  |  | COc1ccc(NC(=O)/C=C\C(=O)O)cc1Nc1ncc(Cl)c(Nc2ccccc2P(C)(C)=O)n1
27 | > 7.30 | > 7.30 | > 7.30 | 6.60 to 7.00 |  | C=CC(=O)Nc1ccc(OC)c(Nc2ncc(C#N)c(Nc3ccccc3P(C)(C)=O)n2)c1

Further lines, the compound ahead of its results:

Row | Structure (SMILES) | pIC50 [1] | pIC50 (EGFR (human)) | pIC50 [2] | pIC50 [3] | pIC50 [4]
28 | COc1cc(N2CCOCC2)c(NC(=O)C#CCCN(C)C)cc1Nc1ncc(Cl)c(Nc2ccccc2P(C)(C)=O)n1 | > 7.30 | > 7.30 | > 7.30 | > 7.30 | > 7.30
29 | C=CC(=O)Nc1cc(Nc2ncc(Cl)c(Nc3ccccc3P(C)(C)=O)n2)c(OC)cc1C#CCN1CCCCCC1 | > 7.30 | > 7.30 | > 7.30 | > 7.30 | > 7.30
30 | C=CC(=O)Nc1cc(Nc2ncc(Cl)c(Nc3ccccc3P(C)(C)=O)n2)c(OC)cc1C#CCN1CCCC1 | > 7.30 | > 7.30 | > 7.30 | > 7.30 | > 7.30
31 | C=CC(=O)Nc1cc(Nc2ncc(Cl)c(Nc3ccccc3P(C)(C)=O)n2)c(OC)cc1OCCCN1CCOCC1 | > 7.30 | 6.60 to 7.00 | > 7.30 | 6.60 to 7.00 | 6.60 to 7.00
32 | C=CC(=O)Nc1cc(Nc2ncc(Cl)c(Nc3ccccc3P(C)(C)=O)n2)c(OC)cc1CCN1CCN(C)CC1 | > 7.30 | > 7.30 | > 7.30 | 6.60 to 7.00 | 
33 | C=CC(=O)Nc1ccc(OC)c(Nc2cc(Nc3ccccc3P(C)(C)=O)ncn2)c1 | 6.60 to 7.00 | 7.00 to 7.30 | > 7.30 |  | 
34 | COc1cc(P(C)(C)=O)ccc1Nc1ncc(Cl)c(Oc2cccc(NC(=O)C#CCN(C)C)c2)n1 | > 7.30 | > 7.30 | > 7.30 | 6.60 to 7.00 | 
35 | CC#CC(=O)Nc1cc(Nc2ncc(Cl)c(Nc3ccccc3P(C)(C)=O)n2)c(OC)cc1OCC1CCOCC1 |  |  | 6.60 to 7.00 | > 7.30 | 7.00 to 7.30
36 | C=CC(=O)Nc1cc(Cc2ncc(Cl)c(Nc3ccccc3P(C)(C)=O)n2)c(OC)cc1C#CCN(C)C(C)(C)C | > 7.30 | > 7.30 | > 7.30 |  | 
37 | C=CC(=O)Nc1cc(Nc2ncc(Cl)c(Nc3ccccc3P(C)(C)=O)n2)c(OC)cc1OC1COC1 | > 7.30 |  | > 7.30 | > 7.30 | 7.00 to 7.30
38 | C=CC(=O)Nc1cc(Nc2ncc(Cl)c(Nc3ccccc3P(C)(C)=O)n2)c(OC)cc1OCCN1CCN(C)CC1 | > 7.30 | 6.60 to 7.00 | > 7.30 |  | 
39 | C=CC(=O)Nc1cc(Nc2ncc(Cl)c(Nc3ccccc3P(C)(C)=O)n2)c(OC)cc1OCC(CO)N(C)C (stereo not drawn) |  |  |  | 6.60 to 7.00 | 
40 | C=CC(=O)Nc1cc(Nc2ncc(Cl)c(Nc3ccccc3P(C)(C)=O)n2)c(OC)cc1N1CCC(N2CCN(CCO)CC2)C1 (stereo not drawn) | > 7.30 | > 7.30 | > 7.30 |  | 
41 | C=CC(=O)Nc1cc(Nc2ncc(Cl)c(Nc3ccccc3P(C)(C)=O)n2)c(OC)cc1OCC1CCN(C)CC1 | > 7.30 | 7.00 to 7.30 | > 7.30 | 6.60 to 7.00 | 
42 | C=CC(=O)Nc1cc(Nc2ncc(Cl)c(Nc3ccccc3P(C)(C)=O)n2)c(OC)cc1N1CCC(N2CCC(O)CC2)C1 (stereo not drawn) | > 7.30 | > 7.30 | > 7.30 | 6.60 to 7.00 | 
43 | C=CC(=O)Nc1cc(Nc2ncc(Cl)c(Nc3ccccc3P(C)(C)=O)n2)c(OC)cc1N1CCC(N)C1 (stereo not drawn) | > 7.30 | > 7.30 | > 7.30 |  | 
44 | COc1ccc(NC(=O)CF)cc1Nc1ncc(Cl)c(Nc2ccccc2P(C)(C)=O)n1 | 6.60 to 7.00 |  | 7.00 to 7.30 |  | 
45 | C=CC(=O)Nc1cc(Cc2ncc(Cl)c(Nc3ccccc3P(C)(C)=O)n2)c(OC)cc1C#CCN1CCC(N(C)C)C1 (stereo not drawn) | > 7.30 | 7.00 to 7.30 | > 7.30 |  | 
46 | C=CC(=O)Nc1cc(Nc2ncc(Cl)c(Nc3ccccc3P(C)(C)=O)n2)c(OC)cc1OC1CN(C)C1 |  |  |  | 7.00 to 7.30 | 6.60 to 7.00
47 | C=CC(=O)Nc1cc(Nc2ncc(Cl)c(Nc3ccccc3P(C)(C)=O)n2)c(OC)cc1OCC1CCOCC1 | 7.00 to 7.30 |  | > 7.30 | 7.00 to 7.30 | 6.60 to 7.00
48 | C=CC(=O)Nc1cc(Nc2ncc(Cl)c(Nc3ccccc3P(C)(C)=O)n2)c(OC)cc1C#CCN(CC)CC | > 7.30 |  | > 7.30 | > 7.30 | > 7.30
49 | C=CC(=O)Nc1cc(Nc2ncc(Cl)c(Nc3ccccc3P(C)(C)=O)n2)c(OC)cc1N1CCC(N2CCN(C)CC2)CC1 | > 7.30 | > 7.30 |  | 7.00 to 7.30 and > 7.30 | 7.00 to 7.30 and > 7.30
50 | C=CC(=O)Nc1cc(Nc2ncc(Cl)c(Nc3ccccc3P(C)(C)=O)n2)c(OC)cc1OCC1CCCN1C (stereo not drawn) |  |  |  | > 7.30 | > 7.30
51 | C=CC(=O)Nc1cc(Cc2ncc(Cl)c(Nc3ccccc3P(C)(C)=O)n2)c(OC)cc1C#CCN1CCC(C)CC1 | > 7.30 | > 7.30 | > 7.30 |  | 
52 | C=CC(=O)Nc1cc(Nc2ncc(Cl)c(Nc3ccccc3P(C)(C)=O)n2)c(OC)cc1N1CCC(N2CCC(O)C2)C1 (stereo not drawn) | > 7.30 | > 7.30 | > 7.30 | 6.60 to 7.00 | 
53 | C=CC(=O)Nc1cc(Nc2ncc(Cl)c(Nc3ccccc3P(C)(C)=O)n2)c(OC)cc1C(=O)N1CCN(C)CC1 | > 7.30 | 6.60 to 7.00 | > 7.30 |  | 
54 | CC#CC(=O)Nc1cc(Nc2ncc(Cl)c(Nc3ccccc3P(C)(C)=O)n2)c(OC)cc1OCCN1CCCC1 | > 7.30 |  | > 7.30 | > 7.30 | 6.60 to 7.00
